How the values were obtained:
diploidem Roggen Chulpan = assay: Field test of gametocidal activity, diploid rye Chulpan; assay type: in vivo; conditions: for Kornzahl der Ähre bei freier Bestäubung / Kornzahl der Ähre im Isolator / Prozentsatz des Ansetzens von Samen bei freier Bestäubung: Chulpan, period V, 1% aqueous emulsion, 10 kg/ha; for Prozentsatz des Ansetzens von Samen bei freier Bestäubung: control = 100; for pest or weed control at 10000 g/ha: read-out: Prozentsatz der Sterilität
Description: (§1) Die gametozide Aktivität der erfindungsgemäßen Sterilisationsmittel war in Feldversuchen in verschiedenen bodenklimatischen Zonen mit Teilstücken von 10 m^2 Größe in dreibis viermaliger Wiederholung festgestellt. Jedes Sterilisationsmittel wurde mindenstens 5 Jahre lang geprüft.
(§2) Die Entwicklung der Perioden der Organogenese wird zytologisch überwacht. Die Behandlung von Pflanzen mit dem Sterilisationsmittel erfolgt am Anfang der fünften Periode der Organogenese nach Kupermann.
(§3) Mit dem Ährenschieben verwirklicht man die Isolierung von Hauptähren und anderen Stockwerken in Pergametbeuteln. Bei Weizen und Tritikale werden Einzelisolatoren benutzt. Bei Roggen schließt man je 1 Ähre von […] verschiedenen nebeneinander befindlichen Pflanzen unter einen gemeinsamen Isolator ein. Bei Hirse wird jede Rispe getrennt isoliert. Der Sterilitätsprozentsatz (X) für Weizen, Roggen, Tritikale und Hirse wird nach der Formel [formula] ermittelt.
(§4) Die Kornzahl in nicht isolierten Ähren von Kontrollpflanzen wird bedingt für 100 % Ansetzen bei freier Bestäubung angenommen.
(§5) Um zuverlässige Angaben zu erhalten, verwendet man 20 bis 25 Isolatoren je Wiederholung für Weizen und Tritikale, 10 bis 15 Isolatoren jeder Wiederholung für Roggen und Hirse.
Pflanzen von diploidem Roggen Chulpan werden in der V.Periode der Organogenese mit einer 1%igen wäßrigen Emulsion von 1,1,3-Tribrompropan, 1,1,3-Tribrom-4-chlorbutan, 1,1,2,3-Tetrabrompropan, 1,2,3-Tribrompropan, 1,2-Dibrompropan, 1,1,3-Tribrom-3-ohlorpropan, 1,2-Dibrom-3--chlorpropan, 1,3-Dibrompropan, 1,1,1,3-Tetrabromheptan, 1,1,3-Tribromheptan bzw. 1,2-Dibromheptan behandelt. Die Emulsion enthält 0,5 Masse% C12-C14-Kalziumalkylbenzolsul- fonat und 0,01 Masse% Dimethylsulfoxid. Der Verbrauch an Präparat beträgt 10 kg/ha. Die Prüfergebnisse sind in der Tabelle 11 angegeben. Die gleichen Ergebnisse sind bei der Behandlung von diploidem Roggen Chulpan in der VI. Periode der Organogenese erhalten.

[1] = test system: Sommerweizens Sorte Moskowskaya 35; assay: Field test of gametocidal activity, spring wheat Moskowskaya 35; assay type: in vivo, Weizen; conditions: for Kornzahl der Ähre bei freier Bestäubung / Kornzahl der Ähre im Isolator / Prozentsatz des Ansetzens von Samen bei freier Bestäubung: Moskowskaya 35, period V, 1% aqueous emulsion, 6 kg/ha in 600 l water; for Prozentsatz des Ansetzens von Samen bei freier Bestäubung: control = 100; for pest or weed control at 6000 g/ha: read-out: Prozentsatz der Sterilität
Description: as §1, §2, §3, §4, §5
Pflanzen des Sommerweizens Sorte Moskowskaya 35 werden in der V. Periode der Organogenese (nach Kupermann) mit einer l%igen wäßrigen Emulsion von 1,1,3-Tribrompropan, […], 1,1,2,3-Tetrabrompropan, 1,2,3-Tribrompropan, 1,2-Dibrompropan, 1,1,3-Tribrom-3-chlorpropan, 1,2-Dibrom-3-chlorpropan, 1,3-Dibrompropan, 1,1,1,3-Tetrabromheptan bzw. 1,1,3-Tribromheptan behandelt. Die Emulsion enthält als Emulgierungsmittel 0,5 Masse% C12-C14-Kalzium- alkylbenzolsulfonat und als Adjuvans 0,01 Masse% Dimethylformamid. Der Verbrauch an Präparat beträgt 6 kg/ha bei 600 1 Wasserdurchsatz. Als Kontrolle dienen Pflanzen, behandelt mit dem Verdünner ohne Sterilisationsmittel.
Die Prüfergebnisse sind in der Tabelle 2 angegeben. Die gleichen Ergebnisse sind bei der Behandlung des Sommerweizens Sorte Moskowskaya 35 in der VI.Periode der Organogenese erhalten.

[2] = test system: Winterweizens Sorte Mironowskaya 808; assay: Field test of gametocidal activity (anther sterilisation), winter wheat Mironowskaya 808; assay type: in vivo, Weizen; conditions: for Kornzahl der Ähre bei freier Bestäubung / Kornzahl der Ähre im Isolator / Prozentsatz des Ansetzens von Samen bei freier Bestäubung: Mironowskaya 808, period V of organogenesis, 1% aqueous emulsion, 10 kg/ha; for Prozentsatz des Ansetzens von Samen bei freier Bestäubung: control = 100; for pest or weed control at 1 %, 10000 g/ha: read-out: Prozentsatz der Sterilität %
Description: as §1, §2, §3, §4, §5
Pflanzen des Winterweizens Sorte Mironowskaya 808 werden in der V.Periode der Organogenese durch Zerstäubung der 2%igen wäßrigen Emulsion von 1,1,3-Tribrompropan mit Hilfe einer Rückenspritze behandelt.
Als Emulgierungsmittel setzt man 0,5 Masse% C12-C14--Kalziumalkylbenzolsulphonat zu. Als Adjuvans enthält die Emulsion 0,01 Masse% Dimethylsulfoxid. Der Verbrauch an Präparat beträgt 20 kg/ha bei 1000 Liter Wasserdurchsatz. Als Kontrolle dienen Pflanzen, behandelt mit einem Verdünner ohne Sterilisationsmittel. Die Ergebnisse sind in der Tabelle 1 angegeben.
Der ProzeB wird analog zu dem in Beispiel 1 beschriebenen durchgeführt. Als Sterilisationsmittel verwendet man eine 2%ige waßrige Emulsion von 1,1,3-Tribrom-4-chlorbutan, 1,1,2,3-Tetrabrompropan. Die Prüfergebnisse sind in der Tabelle 1 angegeben.
Der Prozeß wird analog zu dem in Beispiel 1 beschriebenen durchgeführt, nur daß man 1%ige wäßrige Emulsion von 1,2,3-Tribrompropan, 1,2-Dibrompropan, 1,1,3-Tribrom-3--chlorpropan, 1,2-Dibrom-3-chlorpropan, 1,3-Dibrompropan, 1,1,1,3-Tetrabromheptan, 1,1,3-Tribromheptan, 1,2-Dibromheptan verwendet. Die Präparatdosis beträgt 10 kg ha. Die Prüfergebnisse sind in der Tabelle 1 angegeben. Die gleichen Ergebnisse sind bei der Behandlung des Weizens Sorte Mironowskaya 808 in der VI. Periode der Organogenese erhalten.

[3] = test system: tetraploidem Roggen Belta; assay: Field test of gametocidal activity, tetraploid rye Belta; assay type: in vivo; conditions: period V, 1% aqueous emulsion, 6 kg/ha in 600 l water
Description: as §1, §2, §3, §4, §5
Pflanzen von tetraploidem Roggen Belta werden in der V.Periode der Organogenese (nach Kupermann) mit einer 1%igen wäßrigen Emulsion von 1,1,3-Tribrompropan, 1,1,3--Tribrom-4-chlorbutan, 1,1,2,3-Tetrabrompropan, 1,2,3-Tribrompropan, 1,1,3-Tribrom-3-chlorpropan bzw. 1,2-Dibrom--3-chlorpropan behandelt.
Die Emulsion enthält 0,5 Masse% C12-C14-Kalziumalk^yl-benzolsulfonat und 0,01 Masse% Dimethylsulfoxid. Der Verbrauch an Präparat beträgt 6 kg/ha bei 600 1 Wasserdurchsatz.Die Prüfergebnisse sind in der Tabelle 7 angegeben. Die gleichen Ergebnisse sind bei der Behandlung von tetraploidem Roggen Belta in der VI. Periode der Organogenese erhalten.

[4] = test system: diploidem Roggen Kharkovskaya 55; assay: Field test of gametocidal activity, diploid rye Kharkovskaya 55; assay type: in vivo
Description: as §1, §2, §3, §4, §5
Pflanzen von diploidem Roggen Kharkovskaya 55 werden in der V. Periode der Organogenese mit einer l%igen wäßrigen Emulsion von 1,1,3-Tribrompropan, 1,2,3-Tribrompropan, 1,2-Dibrompropan, 1,1,3-Tribrom-3-chlorpropan, 1,2--Dibrom-3-chlorpropan, 1,1,1,3-Tetrabromheptan, 1,1,3-Tribromheptan bzw. 1,2-Dibromheptan behandelt. Die Emulsion enthält 0,5 Masse% C12-C14-Kalziumalkylbenzolsulfonat und 0,01 Masse% Dimethylformamid als Adjuvans. Der Verbrauch an Präparat beträgt 6 kg/ha bei 600 1 Wasserdurchsatz. Die Prüfergebnisse sind in der Tabelle 13 angegeben. Die gleichen Ergebnisse sind bei der Behandlung von diploidem Roggen Kharkovskaya 55 in der VI. Periode der Organogenese erhalten.

[5] = test system: Hirse Sorte Mironovskoye 94; assay: Field test of gametocidal activity, millet Mironovskoye 94; assay type: in vivo
Description: as §1, §2, §3, §4, §5
Pflanzen der Hirse Sorte Mironovskoye 94 werden in der V.Periode der Organogenese mit einer 1%igen wäßrigen Emulsion von 1,1,3-Tribrompropan, 1,2,3-Tribrompropan, 1,2-Dibrompropan, 1,2-Dibrom-3-chlorpropan, 1,3-Dibrompropan, 1,1,1,3-Tetrabromheptan, 1,1,3-Tribromheptan, 1,2-Dibromheptan behandelt. Die Emulsion enthält 0,5 Masse% C12-C14--Kalziumalkylbenzolaulfonat und 0,01 Masse% Dimethylsulfoxid als Adjuvans. Der Verbrauch an Präparat beträgt 6 kg/ha bei 600 1 Wasserdurchsatz. Die Prüfergebnisse sind in der Tabelle 15 angegeben. Die gleichen Ergebnisse sind bei der Behandlung der Hirse Sorte Mironovskoye 94 in der VI. Periode der Organogenese erhalten.

[6] = test system: Sommerweizens Sorte Rodina; assay: Field test of gametocidal activity, spring wheat Rodina; assay type: in vivo, Weizen; conditions: period V, 1% aqueous emulsion, 6 kg/ha in 600 l water
Description: as §1, §2, §3, §4, §5
Pflanzen des Sommerweizens Sorte Rodina werden in der V.Periode der Organogenese (nach Kupermann) mit einer l%igen wäßrigen Emulsion von 1,3-Dibrompropan, 1,1,1,3-Tetrabromheptan, 1,1,3-Tribromheptan bzw. 1,2-Dibromheptan behandelt. Die Emulsion enthalt 0,5 Masse% C12-C14 Kalziumalk^ylbenzol- sulfonat und 0,01 Masse% Dodezylsulfat. Der Verbrauch an Präparat beträgt 6 Kg/ha bei 600 1 Wasserdurchsatz. Als Kontrolle dienen Pflanzen, behandelt mit dem Verdünner ohne Sterilisationsmittel.
Die Prüfergebnisse sind in der Tabelle 3 angegeben. Die gleichen Ergebnisse sind bei der Behandlung des Sommerweizens Sorte Rodina in der VI. Periode der Organogenese erhalten.

[7] = Toxicity in animal test (LD50); set-up: species or system Mäuse; conditions: in vivo, mice stated only for 1,1,3-Tribrompropan, species not given for the others
Description: Alle erfindungsgemäßen Polybromalkane, die als Sterilisationsmittel zur Verwendung kommen, waren auf die Toxizität im Tierversuch geprüft. Die Prüfergebnisse haben ergeben, daß die angegebenen Verbindungen von schwacher oder mittlerer Toxizität sind.

[8] = test system: Sommerweizens Sorte Botanicheskaya 4; assay: Field test of gametocidal activity, spring wheat Botanicheskaya 4; assay type: in vivo, Weizen; conditions: period V, 1% aqueous emulsion, 6 kg/ha in 600 l water
Description: as §1, §2, §3, §4, §5
Pflanzen des Sommerweizens Sorte Botanicheskaya 4 werden in der V. Periode der Organogenese (nach Kupermann) mit einer 1%igen wäßrigen Emulsion von 1,3-Dibrompropan, 1,1,1,3-Tetrabromheptan, 1,1,2-Tribromheptan bzw. 1,2--Dibromheptan behandelt. Die Emulsion enthält 0,5 Masse% C12-C14-Kalziumalkylbenzolsulfonat und 0,01 Masse% Dimethylsulfoxid als Adjuvans. Der Verbrauch an Präparat beträgt 6 kg/ha bei 600 1 Wasserdurchsatz. Als Kontrolle dienen Pflanzen, behandelt mit dem Verdünner ohne Sterilisationsmittel.
Die Prüfergebnisse sind in der Tabelle 4 angegeben. Die gleichen Ergebnisse sind bei der Behandlung des Sommerweizens Sorte Botanicheskaya 4 in der VI. Periode der Organogenese erhalten.

[9] = Kharkovskaya 55, period V, 1% aqueous emulsion, 6 kg/ha in 600 l water
[10] = read-out: Prozentsatz der Sterilität
[11] = Mironovskoye 94, period V, 1% aqueous emulsion, 6 kg/ha in 600 l water

SMILES	Kornzahl der Ähre bei freier Bestäubung (diploidem Roggen Chulpan)	Kornzahl der Ähre im Isolator (diploidem Roggen Chulpan)	Prozentsatz des Ansetzens von Samen bei freier Bestäubung (diploidem Roggen Chulpan)	pest or weed control at 10000 g/ha (diploidem Roggen Chulpan)	Kornzahl der Ähre bei freier Bestäubung [1]	Kornzahl der Ähre im Isolator [1]	Prozentsatz des Ansetzens von Samen bei freier Bestäubung [1]	pest or weed control at 6000 g/ha [1]	Kornzahl der Ähre bei freier Bestäubung [2]	Kornzahl der Ähre im Isolator [2]	Prozentsatz des Ansetzens von Samen bei freier Bestäubung [2]	pest or weed control at 1 %, 10000 g/ha [2]	Kornzahl der Ähre bei freier Bestäubung [8]	Kornzahl der Ähre im Isolator [8]	Prozentsatz der Sterilität [8]	also measured
ClC(Br)CC(Br)Br (stereo not drawn) [Beispiel 6, 1,1,3-Tribrom-3--chlorpropan]	47,7	0,6	95,2%	98.8%	37,8	1,2	98,9%	96.3%	37,0	1,2	99,2%	96.8%				Kornzahl der Ähre bei freier Bestäubung [3]: 39,8; Kornzahl der Ähre im Isolator [3]: 0,1; Prozentsatz der Sterilität [3]: 99,9%; Prozentsatz des Ansetzens von Samen bei freier Bestäubung ([3]; control = 100): 90,0%; Kornzahl der Ähre bei freier Bestäubung [4, 9]: 41,7; Kornzahl der Ähre im Isolator [4, 9]: 0,1; Prozentsatz des Ansetzens von Samen bei freier Bestäubung ([4]; Kharkovskaya 55, period V, 1% aqueous emulsion, 6 kg/ha in 600 l water, control = 100): 92,5%; pest or weed control at 6000 g/ha [4, 10]: 99.8%
BrCCCBr [Beispiel 8, 1,3-Dibrompropan]	41,7	0,1	83,2%	99.8%	32,7	0,0	85,6%	100%	38,7	0,0	93,0%	100%	24,7	0,0	100,0%	Kornzahl der Rispe bei freier Bestäubung [5, 11]: 212,7; Kornzahl der Rispe im Isolator [5, 11]: 0,0; Prozentsatz des Ansetzens von Samen bei freier Bestäubung ([5]; Mironovskoye 94, period V, 1% aqueous emulsion, 6 kg/ha in 600 l water, control = 100): 86,9%; pest or weed control at 6000 g/ha [5, 10]: 100%; Kornzahl der Ähre bei freier Bestäubung [6]: 37,1; Kornzahl der Ähre im Isolator [6]: 0,0; Prozentsatz der Sterilität [6]: 100,0%; Prozentsatz des Ansetzens von freier Bestäubung ([6]; control = 100): 91,8%; LD50 [7]: 473 ± 25 mg/kg
CCCCCC(Br)C(Br)Br (stereo not drawn) [Beispiel 28, 1,1,2-Tribromheptan]													29,2	0,0	100,0%	Prozentsatz des Ansetzens von Samen bei freier Bestäubung ([8]; control = 100): 94,5%

Source: patent publication EP0358766A1, “METHOD OF STERILIZING PLANT ANTHERS” (VSESOJUZNY NAUCHNO-ISSLEDOVATELSKY INST. SELSKOKHOZYAISTV. …, priority 1988, dated 1989)
